Test results from article PMC5823406, “Vehicle development, pharmacokinetics and toxicity of the anti-invasive agent 4-fluoro-3’,4’,5’-trimethoxychalcone in rodents” (PLoS ONE, 2018).
Values joined by “and” are separate entries in the source; they are usually repeats but may differ in a detail not shown here. Equal entries are not always repeated. Where two headings read alike, the source gives them in different places.

Columns and labels:
[1] = Stability test of C16 in 10% Solutol HS-15 / 90% PEG 600; format: physicochemical
Protocol: Solutions of 30 mg/mL and 10 mg/mL of C16 were prepared and stored at room temperature and 4°C for 24 h. The stability of C16 was evaluated at 0, 1, 2, 4, 8 and 24 h after formulation by high-performance liquid chromatography-mass spectrometry/mass spectrometry (HPLC-MS/MS) (electrospray ionization, ESI+) analysis using oxybutynin as an internal standard (IS). Analyte samples were diluted 500x with acetonitrile (ACN)/H2O (20:80). This solution was further diluted 100x with an oxybutynin solution (1 ng/μL in ACN/H2O 20:80), giving a final concentration of 0.6 ng/μL and 0.2 ng/μL, respectively, for HPLC-MS/MS analysis (multiple reaction monitoring scan mode, MRM, see Section A of S1 File for more details). All analyses were performed in triplicates.
A.A. Vehicles for single-dose studies a. Stability test of C16 in 10% Solutol HS -15 / 90% PEG 600
Quantification was performed by calculating the ratio of the peak area (counts) of C16 and the IS. Results are expressed as relative differences to the peak ratio at 0 h (%RE, Table A).
Table A. Stability in 10% Solutol HS -15 / 90% PEG 600: peak ratios.
10mg/mL at room temperature
30mg/mL at room temperature
CV: Coefficient of variation; RE: Difference in peak area relative to indicated time point. […]

[2] = High-dose PK, single PO 300 mg/kg via oral gavage; format: in vivo; conditions: single 300 mg/kg oral gavage; for Individual whole blood concentration: animals 4-1 to 4-3
Protocol: On the morning of day 7, the water group received a single PO administration of 300 mg/kg C16 (10 mL/kg) for high-dose PK evaluation, using a 30 mg/mL solution of C16 in 10% Solutol HS-15 / 90% PEG 600 (prepared as described above). To that extent, blood was collected via the tail vein at the 30 and 60 min time point, and via cardiac exsanguination after 180 min (protocol as for other cohorts). Samples for hematological and biochemical analysis were also prepared. Afterward, animals were sacrificed by cervical dislocation.
Blood samples (25 μL) were collected via the tail vein or cardiac puncture (last time point). Blood was pipetted into a tube with 25 μL heparinized water (1 μL of sodium heparin (1000 units/mL) + 24 μL water) within 30 seconds of collection. The sample was pipetted up and down five times, immediately frozen on dry ice, and stored at -60°C to -80°C until analysis.
E.C. Whole blood C16 levels […]
BLOQ: below the limit of quantitation (0.5 ng/mL). Samples that were below the limit of quantification were not used in the calculation of
Table BB. […]

MCF-7/6 = assay: Chick heart invasion assay (3D confrontation culture); format: cell-based; conditions: Homo sapiens, MCF7/6; read-out: projected C16 EC50 value
Text: Our laboratories have been characterizing and validating 4-fluoro-3’,4’,5’-trimethoxychalcone or C16 as a novel invasion inhibitor for the study and potential treatment of metastatic cancer (Fig 1). C16 has nanomolar anti-invasive potency in the chick heart and Matrigel in vitro invasion models against several human cancer cell lines (MCF-7/6 breast cancer, BLM melanoma and SK-OV-3 ovarian carcinoma). […] Given its discovery in a phenotypic model, the biological target of C16 is unknown. We have differentiated the molecular mechanism of action of C16 from that of other antimetastatic agents, and are currently characterizing its biochemical interactions in detail.
Fig 1 Structure and biological activity of C16.

Blood partitioning = format: in vitro ADME; conditions: rat, Sprague-Dawley, authors call the ratio not accurate
Aqueous solubility = format: physicochemical; conditions: test concentration 200 μM
Text: Table 3 In vitro physicochemical, stability and metabolism data. | column: Value

COc1cc(C(=O)/C=C/c2ccc(F)cc2)cc(OC)c1OC [C16, 4-fluoro-3’,4’,5’-trimethoxychalcone]
%RE to 0 h (peak ratio C16/IS) ([1]; 10mg/mL at 4 °C, 1 h): 1.2% | %RE to 0 h (peak ratio C16/IS) ([1]; 10mg/mL at 4 °C, 2 h): -2.9% | %RE to 0 h (peak ratio C16/IS) ([1]; 10mg/mL at 4 °C, 4 h): 1.4% | %RE to 0 h (peak ratio C16/IS) ([1]; 10mg/mL at 4 °C, 8 h): -0.6% | %RE to 0 h (peak ratio C16/IS) ([1]; 10mg/mL at 4 °C, 24 h): -1.4% | %RE to 0 h (peak ratio C16/IS) ([1]; 10mg/mL at room temperature, 1 h): 1.8% | %RE to 0 h (peak ratio C16/IS) ([1]; 10mg/mL at room temperature, 2 h): 1.8% | %RE to 0 h (peak ratio C16/IS) ([1]; 10mg/mL at room temperature, 4 h): -1.0% | %RE to 0 h (peak ratio C16/IS) ([1]; 10mg/mL at room temperature, 8 h): 1.4% | %RE to 0 h (peak ratio C16/IS) ([1]; 10mg/mL at room temperature, 24 h): 2.9% | %RE to 0 h (peak ratio C16/IS) ([1]; 30mg/mL at 4°C, 1 h): 4.8% | %RE to 0 h (peak ratio C16/IS) ([1]; 30mg/mL at 4°C, 2 h): -6.1% | %RE to 0 h (peak ratio C16/IS) ([1]; 30mg/mL at 4°C, 4 h): 3.5% | %RE to 0 h (peak ratio C16/IS) ([1]; 30mg/mL at 4°C, 8 h): 5.0% | %RE to 0 h (peak ratio C16/IS) ([1]; 30mg/mL at 4°C, 24 h): 1.6% | %RE to 0 h (peak ratio C16/IS) ([1]; 30mg/mL at room temperature, 1 h): -0.6% | %RE to 0 h (peak ratio C16/IS) ([1]; 30mg/mL at room temperature, 2 h): 0.2% | %RE to 0 h (peak ratio C16/IS) ([1]; 30mg/mL at room temperature, 4 h): -3.1% | %RE to 0 h (peak ratio C16/IS) ([1]; 30mg/mL at room temperature, 8 h): -5.4% | %RE to 0 h (peak ratio C16/IS) ([1]; 30mg/mL at room temperature, 24 h): 0.3% | Stability of solutions in 10% Solutol HS-15 / 90% PEG 600 ([1]; 10 and 30 mg/mL, room temperature (20–25 °C) and 4°C over 24 h): stable | concentration at 0.5 h ([2]; male, CD-1, mouse, whole blood, po, 0.5 h, Average±SD): 32.3 ± 24.2 ng/mL | concentration at 1 h ([2]; male, CD-1, mouse, whole blood, po, 1 h, Average±SD): 28.3 ± 12.1 ng/mL | concentration at 3 h ([2]; male, CD-1, mouse, whole blood, po, 3 h, Average±SD, read-out: Whole blood concentration): 15.1 ± 2.9 ng/mL | Individual whole blood concentration ([2]; mouse, 0.5 h): 19.3 ng/mL and 60.2 ng/mL and 17.5 ng/mL | Individual whole blood concentration ([2]; mouse, 1 h): 28.5 ng/mL and 40.3 ng/mL and 16.2 ng/mL | Individual whole blood concentration ([2]; mouse, 3 h): 13.9 ng/mL and 13.1 ng/mL | concentration at 3 h ([2]; mouse, whole blood, po, 3 h, animals 4-1 to 4-3, read-out: Individual whole blood concentration): 18.4 ng/mL | EC50 (MCF-7/6): 10 nM and 0.00632 µg/mL | blood plasma ratio at 1 μM (Blood partitioning): 9.2 | Aqueous solubility (Aqueous solubility; PBS, pH 7.4): 7.9 µM | Aqueous solubility (Aqueous solubility; simulated gastric fluid): 9.1 µM | Aqueous solubility (Aqueous solubility; simulated intestinal fluid): 2.4 µM
